Consider two molecules from patent publication US9493464B2, “Wee1 degradation inhibitors” (The Scripps Research Institute, priority 2012, dated 2016).

One series has as its system HeLa cells. Put plainly: Cell viability, ATP content (Cell-Titer Glo). It is filed as cell-based. To be noted: 24 hours, result in words. An excerpt:
Error bars represent the standard deviation of three separate experiments.

Series [1] concerns cerebellar granule cell progenitors (GCPs). Put plainly: In vitro proliferation of cerebellar granule cell progenitors (3H-thymidine uptake). It is filed as cell-based, mouse. To be noted: 24 hours; result in words. The procedure: GCPs were incubated with DMSO, 5 μM D4476 (known CK1δ and CK1ε inhibitor), or 50 μM D4476 and processed for ^3H-thymidine incorporation after 24 hours. A representative experiment performed in triplicate is shown.

A further series deals with K328M-Wee1-luciferase. Put plainly: Wee1-luciferase assay (stabilization of K328M-Wee1-luciferase). It is filed as cell-based. To be noted: for EC50: read-out: EC50 for stabilization of K328M-Wee1-luciferase. An excerpt:
Steady-state level of K328M-Wee1-Luciferase (K328M-Wee1-Luc) was divided by Luciferase level (Luc) and plotted.
Similar assays have previously been described; PubChem AID 1807.

Another series concerns UACC-62 (melanoma). Put plainly: NCI Dose Growth Inhibition assay (NCI-60). It is filed as cell-based. To be noted: Homo sapiens. The procedure:
(§1) Table 3, below, illustrates the activity of some of the compounds of the present invention in the National Cancer Institute's Dose Growth Inhibition assay against several human tumor cell lines selected from the NCI-60 panel.
(§2) NCI-60 Cancer Cell Line Screening was performed by the National Cancer Institute, using the procedures described on their website (http://dtp.nci.nih.gov/branches/btb/ivelsp.html)

Another series concerns RXF393 (renal). As to the kind of experiment: NCI Dose Growth Inhibition assay (NCI-60). It is filed as cell-based. To be noted: Homo sapiens, RXF 393. As to the method:
as §1, §2

Another series deals with COLO 205 (colon). Put plainly: NCI Dose Growth Inhibition assay (NCI-60). It is filed as cell-based. To be noted: Homo sapiens. As to the method: as §1, §2
Another series deals with MDA-MB-468 (breast). As to the kind of experiment: NCI Dose Growth Inhibition assay (NCI-60). It is filed as cell-based. To be noted: Homo sapiens. The procedure: as §1, §2
The test system of another series is A498 (renal). As to the kind of experiment: NCI Dose Growth Inhibition assay (NCI-60). It is filed as cell-based. To be noted: Homo sapiens. As to the method: as §1, §2
For another series, the system named is SNB-75 (CNS). As to the kind of experiment: NCI Dose Growth Inhibition assay (NCI-60). To be noted: Homo sapiens. It is filed as cell-based. The procedure: as §1, §2
The target in a further series is T1, LKB1 (Homo sapiens, UniProt Q15831).
T1 construct: Reaction Biology Corporation (inferred: panel performed there)
T1 sequence (Q15831 1-433): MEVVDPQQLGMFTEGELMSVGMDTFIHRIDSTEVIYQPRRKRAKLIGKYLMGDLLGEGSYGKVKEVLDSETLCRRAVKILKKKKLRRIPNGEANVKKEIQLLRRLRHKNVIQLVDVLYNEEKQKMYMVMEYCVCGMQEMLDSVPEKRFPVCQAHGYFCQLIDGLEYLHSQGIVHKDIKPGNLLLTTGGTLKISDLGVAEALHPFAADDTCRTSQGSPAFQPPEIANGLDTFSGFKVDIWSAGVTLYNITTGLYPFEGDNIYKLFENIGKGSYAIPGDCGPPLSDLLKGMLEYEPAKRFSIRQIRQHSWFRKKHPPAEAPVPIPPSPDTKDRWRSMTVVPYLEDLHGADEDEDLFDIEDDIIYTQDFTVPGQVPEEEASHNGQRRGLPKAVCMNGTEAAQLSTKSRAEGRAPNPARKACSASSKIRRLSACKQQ
T1 sequence (Q7RTN6 1-431 partner): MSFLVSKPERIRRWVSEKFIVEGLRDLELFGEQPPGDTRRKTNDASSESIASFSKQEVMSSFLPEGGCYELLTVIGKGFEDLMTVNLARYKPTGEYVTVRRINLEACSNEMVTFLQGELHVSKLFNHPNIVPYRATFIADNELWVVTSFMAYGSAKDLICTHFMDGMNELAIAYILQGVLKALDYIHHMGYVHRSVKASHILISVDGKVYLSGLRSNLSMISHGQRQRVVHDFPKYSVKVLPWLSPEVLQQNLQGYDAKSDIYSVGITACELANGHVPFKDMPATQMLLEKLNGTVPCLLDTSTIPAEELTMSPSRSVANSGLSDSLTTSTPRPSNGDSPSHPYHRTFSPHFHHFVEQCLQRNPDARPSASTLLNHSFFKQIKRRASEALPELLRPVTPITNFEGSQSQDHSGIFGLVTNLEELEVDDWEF
T1 sequence (Q9Y376 1-341 partner): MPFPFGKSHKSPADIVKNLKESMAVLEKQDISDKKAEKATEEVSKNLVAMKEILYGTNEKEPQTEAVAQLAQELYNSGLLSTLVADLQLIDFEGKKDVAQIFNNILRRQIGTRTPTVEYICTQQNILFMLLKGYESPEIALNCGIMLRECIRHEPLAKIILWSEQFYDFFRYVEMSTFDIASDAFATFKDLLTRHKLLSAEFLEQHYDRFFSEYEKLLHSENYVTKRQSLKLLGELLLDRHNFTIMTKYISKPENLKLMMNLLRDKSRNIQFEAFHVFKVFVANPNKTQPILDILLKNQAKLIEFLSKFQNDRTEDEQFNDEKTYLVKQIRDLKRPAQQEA
Put plainly: In vitro kinase assay, LKB1. It is filed as biochemical. The procedure:
Compounds were tested in 10-dose IC50 mode with 3-fold serial dilution starting at 50 μM. […] Reactions were carried out at 10 μM ATP. Average and standard deviations of reactions carried out in triplicate are shown.
In vitro kinase assay to detect CK1 or FLT3 activity: CK1 and FLT3 assays as well as complete kinase profile of 296 kinases was performed by Reaction Biology Corporation. For FLT3 20 μM final Abltide was used, sequence: [[…]]. For CK1 (all isoforms) 20 μM CK1 tide was used, sequence: [KRRRAL[pS]VASLPGL] in a standard kinase assay with ^32P-ATP and purified kinase. Incorporation of ^32P-ATP into the peptide was measured after a filter-binding assay. In-house CK1d inhibition assays were performed using a standard homogenous time-resolved fluorescence resonance energy transfer (TR-FRET) format in 50 mM Hepes, pH 7.0, 2.5 mM MgCl2, 0.1 mg/ml bovine serum albumin, 1 mM DL-dithiothreitol, 0.01% Triton X-100 (all from Sigma-Aldrich). […] Assays were performed in the presence of 2 μL of compound at different (measured) concentrations, and reactions were stopped by adding 10 μL of 4 nM Eu-anti-p-Topo-IIa (PerkinElmer) in Lance Detection Buffer (Perkin Elmer). Upon excitation of the Eu-labeled antibody, energy is transferred to the acceptor dye resulting in the emission of detected light at 665 nm.

SMILES strings stand for the structures. Entries after “also recorded” stand apart in the source; their conditions may differ. Where two headings read alike, the source gives them in different places.

With `O=[N+]([O-])c1cccc2[nH]c(CNc3nc(N4CCOCC4)nc4c3ncn4-c3ccsc3)nc12` [SR-1277], the cell viability entry in the series on HeLa cells is on record as “not affected”. Besides, the “inhibition of GCP proliferation (3H-thymidine)” value in [1] is listed as “robust inhibition”. In addition, the “% Inhibition, Wee1 Degradation” value with K328M-Wee1-luciferase (0.25 µM) was 100.0%. In addition, the EC50 in the series with K328M-Wee1-luciferase was found to be 40 nM. Further, the GI50 in the series with UACC-62 (melanoma) (UACC-62) is 14 nM; with RXF393 (renal) it was less than 10 nM; with COLO 205 (colon) (COLO 205) it was 15 nM; with MDA-MB-468 (breast) (MDA-MB-468), less than 10 nM; with A498 (renal) (A498) it was 17 nM; with SNB-75 (CNS) (SNB-75), less than 10 nM. Further, the “activity toward LKB1” value on LKB1 (result in words) is “inactive”.

`c1ccc2[nH]c(CNc3nc(N4CCOCC4)nc4c3ncn4-c3ccsc3)nc2c1` [SR-653234]: in the series on HeLa cells, the cell viability entry is listed as “without affecting cell viability; also recorded: not affected”. In series [1], the “inhibition of GCP proliferation (3H-thymidine)” value is “robust inhibition”. For the same molecule, in the series on K328M-Wee1-luciferase (HeLa cells), the EC50 turned out to be 624 nM. Moreover, in the series with K328M-Wee1-luciferase (HeLa cells, result in words), the “stabilization of K328M-Wee1-luciferase” value was “stabilizes Wee1-luciferase”. The “% Inhibition, Wee1 Degradation” value in the series on K328M-Wee1-luciferase (at 250 nM, reported relative to SR-1277 = 100%) is reported as 56.8%. Further, the GI50 is 68 nM with UACC-62 (melanoma) (UACC-62 (melanoma), read-out: GI50); 26 nM in the series with RXF393 (renal) (RXF393 (renal), read-out: GI50); 26 nM in the series on COLO 205 (colon) (COLO 205 (colon), read-out: GI50); 16 nM in the series on MDA-MB-468 (breast) (MDA-MB-468 (breast), read-out: GI50); 72 nM with A498 (renal) (A498 (renal), read-out: GI50); 25 nM with SNB-75 (CNS) (SNB-75 (CNS), read-out: GI50). In addition, the midpoint of inhibition against LKB1, the IC50, lay at 92 nM.

For orientation: EC50 means the concentration giving half of the maximal effect. The GI50 is the concentration at which growth is held to half of that of the control. As usually defined, the IC50 is the midpoint of a concentration-inhibition curve. Higher therefore signals a need for much substance.
